# Patent US9670162B2, “Mitochondrial aldehyde dehyrogenase-2 modulators and methods of use thereof” (The Board of Trustees of the Leland Stanford Junior …, priority 2013, dated 2017)
# Changes are numbered by the printed parent chain.
# Assays:
# [1] = molecular target: T1, human ALDH2*2 recombinant mutant enzyme (E487K) (Homo sapiens, UniProt P05091, E504K); assay: ALDH2 enzymatic assay (NADH at 340 nm), recombinant mutant enzyme; type: biochemical; set-up: key: −: no activation or inhibition; +: activation less than control 1; ++: activation similar to control 1, within 10%; +++: activation more than control 1 and less than control (compound 161); ++++: activation similar to compound 161, within 10%; details: activation relative to benchmarks control 1 and compound 161
# T1 construct: His-tag (pTrcHis vector) (N); made in house; host or cells: E. coli BL21
# T1 sequence (P05091 18-517 E504K): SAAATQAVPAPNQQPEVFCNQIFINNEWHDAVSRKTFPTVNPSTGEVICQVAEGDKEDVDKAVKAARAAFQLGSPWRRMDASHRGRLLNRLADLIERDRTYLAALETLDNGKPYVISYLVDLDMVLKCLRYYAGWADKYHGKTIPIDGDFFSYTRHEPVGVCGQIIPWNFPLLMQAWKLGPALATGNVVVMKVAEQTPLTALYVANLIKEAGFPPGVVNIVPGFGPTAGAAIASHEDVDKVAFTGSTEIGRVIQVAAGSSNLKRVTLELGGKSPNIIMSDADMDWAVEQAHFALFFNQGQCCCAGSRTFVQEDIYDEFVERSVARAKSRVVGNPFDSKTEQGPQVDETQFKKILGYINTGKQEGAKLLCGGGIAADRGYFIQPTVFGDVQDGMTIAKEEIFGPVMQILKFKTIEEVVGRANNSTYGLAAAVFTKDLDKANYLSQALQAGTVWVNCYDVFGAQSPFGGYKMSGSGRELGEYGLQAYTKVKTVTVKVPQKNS
# Source text: (§1) ALDH2 catalyzes the oxidative reaction of substrate acetaldehyde to acetic acid using NAD^+ as a cofactor. Enzymatic activity, or catalytic rate, of aldehyde dehydrogenase (ALDH2) can be measured spectrophotometrically at UV wavelength λ340 nm by the accumulation of reduced product NADH derived from NAD^+. […] This method is well-established in the literature [e.g. D. K. Rex, W. F. Bosron, J. E. Smialek, T. K. Li, Alcohol Clin Exp Res 9, 147 (1985)].
# (§2) Full-length wild type human ALDH2 cDNA was purchased from ATCC (No. MGC-1806. GenBank ID: BC002967). The 18-amino acid mitochondria transport signal sequence was removed by PCR and cloned into the NheI/HindIII sites of a His-tag vector, pTrcHis, using standard molecular cloning techniques. The human ALDH2* cDNA construct containing the Asian E487K mutation was obtained by site-directed mutagenesis to create the E487K substitution of the wild type ALDH2. Both human clones were designed to express a recombinant protein with the His-tag at the N-terminus of the protein. For the co-expression experiments of human ALDH2 wild type and ALDH2*2 heterotetramers, a wild type ALDH2 gene and a ALDH2 E487K gene were inserted separately into the two multiple cloning sites of pETDuet-1 vector. (Novagen, Calif., USA). All the vectors were transformed into BL21 E. coli host cells and subjected to 0.5 mM IPTG induction for protein expression at 30° C. Purifications of the recombinant proteins by affinity nickel columns (HisTrap, GE Healthy Science, USA) were carried out using standard protocols according to manufacturer's instructions (Novagen, USA).
# (§3) Control 1 and compound 161 are used as benchmarks and the symbols have the following representation: […]
# human ALDH2 wild type = molecular target: T2, human ALDH2 wild type (Homo sapiens, UniProt P05091); assay: ALDH2 enzymatic assay (NADH at 340 nm), recombinant wild type enzyme; type: biochemical; set-up: key: −: no activation or inhibition; +: activation less than control 1; ++: activation similar to control 1, within 10%; +++: activation more than control 1 and less than control (compound 161); ++++: activation similar to compound 161, within 10%; details: activation relative to benchmarks control 1 and compound 161
# T2 construct: His-tag (pTrcHis vector) (N); made in house; host or cells: E. coli BL21
# T2 sequence (P05091 18-517): T1 sequence (P05091 18-517 E504K) with K487E
# Source text: as §1, §2, §3
SMILES,ALDH2 (mutant) [1],ALDH2 (wild-type) (human ALDH2 wild type)
COc1ccc(CNC(=O)c2c(Cl)cccc2Cl)cc1Cl [Compound 100],+,+
COc1ccc(CNC(=O)c2c(Cl)cccc2Cl)cc1O [Compound 101],+,+
COc1ccc(CNC(=O)c2c(Cl)cccc2Cl)cc1F [Compound 102],++,++
COc1cccc(CNC(=O)c2c(Cl)cccc2Cl)c1 [Compound 103],+,+
COc1ccc(CNC(=O)c2c(Cl)cccc2Br)cc1Cl [Compound 104],+,+
COc1ccc(CNC(=O)c2c(Cl)cccc2Br)cc1O [Compound 105],+,−
COc1ccc(CNC(=O)c2c(Cl)cccc2Br)cc1F [Compound 106],++,+
COc1cccc(CNC(=O)c2c(Cl)cccc2Br)c1 [Compound 107],+,+
COc1ccc(CNC(=O)c2c(Cl)cccc2Br)cc1 [Compound 108],+,++
COc1ccc(CNC(=O)c2c(Cl)cccc2NCCO)cc1F [Compound 109],++,+
COc1ccc(CNC(=O)c2c(Cl)cccc2Oc2ccccc2)cc1F [Compound 110],++,+
CN(C)c1ccc(CNC(=O)c2c(Cl)cccc2Cl)cc1 [Compound 111],−,−
CS(=O)(=O)c1ccc(CNC(=O)c2c(Cl)cccc2Cl)cc1 [Compound 112],+,+
COc1ccc(CNC(=O)c2c(C)cccc2Br)cc1 [Compound 113],+,+
COc1ccc(CNC(=O)c2c(C)cccc2C)cc1 [Compound 114],+,+
COc1ccc(CNC(=O)c2cc(Br)ccc2C)cc1 [Compound 115],+,+
COc1ccc(CNC(=O)c2ccc(Br)cc2C)cc1 [Compound 116],+,+
COc1ccc(CNC(=O)c2c(C)cccc2NCC(C)C)cc1F [Compound 117],++,+
CS(=O)(=O)c1ccc(CNc2cccc(Cl)c2C(=O)NCc2ccc3c(c2)OCO3)cc1 [Compound 118],+,+
COc1ccc(CNC(=O)c2c(C)cccc2C)cc1F [Compound 119],+,−
COc1ccc(CNC(=O)c2c(NCCO)cccc2NCCO)cc1F [Compound 120],+,−
COc1ccc(CNC(=O)c2ccccc2Cl)cc1F [Compound 121],+,+
COc1ccc(CNC(=O)c2c(Cl)cccc2OCCC(C)C)cc1F [Compound 122],++,+
COc1ccc(CNC(=O)c2cc(Br)ccc2C)cc1F [Compound 123],+,+
COc1ccc(CNC(=O)c2ccc(Br)cc2C)cc1F [Compound 124],+,+

SMILES,ALDH2 (mutant) [1],ALDH2 (wild-type) (human ALDH2 wild type)
COc1ccc(CNC(=O)c2c(C)cccc2Br)cc1F [Compound 125],+,+
O=C(O)c1ccc(CNC(=O)c2c(Cl)cccc2Br)cc1 [Compound 127],+,+
O=C(NCc1ccc([N+](=O)[O-])cc1)c1c(Cl)cccc1Br [Compound 128],+,+
COc1ccc(CNC(=O)c2c(Cl)cccc2NCc2cccc(C)c2)cc1F [Compound 129],−,−
COc1ccc(CNC(=O)c2c(Cl)cccc2NCc2ccc(Cl)cc2)cc1F [Compound 130],−,−
COc1ccc(CNC(=O)c2c(Cl)cccc2Oc2cccc(C)c2)cc1F [Compound 131],+,+
COc1ccc(CNC(=O)c2c(Cl)cccc2Oc2ccc(C)cc2)cc1F [Compound 132],+,+
O=C(NCc1ccc2c(c1)OCO2)c1c(Cl)cccc1NC1CCCNC1 (stereo not shown) [Compound 133],+,+
COc1ccc(CNC(=O)c2c(Cl)cccc2NCC2CC2)cc1F [Compound 134],+++,+++
COc1ccc(CNC(=O)c2c(Cl)cccc2Oc2cccc(Cl)c2)cc1F [Compound 136],++,++
COc1ccc(CNC(=O)c2c(Cl)cccc2Oc2ccc(Cl)cc2)cc1F [Compound 137],+,++
COc1ccc(CNC(=O)c2c(Cl)cccc2OC)cc1F [Compound 138],+++,++
CCOc1cccc(Cl)c1C(=O)NCc1ccc(OC)c(F)c1 [Compound 139],+++,++
COc1ccc(CNC(=O)c2c(Cl)cccc2OC(C)C)cc1F [Compound 140],+++,+++
C=CCOc1cccc(Cl)c1C(=O)NCc1ccc(OC)c(F)c1 [Compound 141],+++,++
CCC(CC)Oc1cccc(Cl)c1C(=O)NCc1ccc(OC)c(F)c1 [Compound 142],+++,++
COCCOc1cccc(Cl)c1C(=O)NCc1ccc(OC)c(F)c1 [Compound 143],++,++
COc1ccc(CNC(=O)c2c(Cl)cccc2OCC2CCC2)cc1F [Compound 144],+++,+++
COc1ccc(CNC(=O)c2c(Cl)cccc2OCC2CCCC2)cc1F [Compound 145],+++,++
COc1ccc(CNC(=O)c2c(Cl)cccc2OC2CCCC2)cc1F [Compound 146],+++,++
CCCOc1cccc(Cl)c1C(=O)NCc1ccc(OC)c(F)c1 [Compound 147],+++,+++
COc1ccc(CNC(=O)c2c(Cl)cccc2NC2CCCC2)cc1F [Compound 148],+,+
COc1ccc(CNC(=O)c2c(Cl)cccc2OCC(C)C)cc1F [Compound 149],++++,++++
COc1ccc(CNC(=O)c2c(Cl)cccc2OC(C)C2CC2)cc1F (stereo not shown) [Compound 150],++,+++
COc1ccc(CNC(=O)c2c(Cl)cccc2OCC2(C)CC2)cc1F [Compound 151],++++,++++
